From US20200261391A1, “METHODS OF REDUCING THE RISK OF A CARDIOVASCULAR EVENT IN A STATIN-TREATED SUBJECT BY INCREASING SERUM AND PLASMA EPA AND DPA LEVELS” (Amarin Pharmaceuticals Ireland Limited, priority 2019, published 2020)

System: TG, non-HDL-C, LDL-C, HDL-C, apo B, hsCRP
Assay: REDUCE-IT trial: fasting lipid, lipoprotein and inflammatory marker data over time
Type: in vivo, human
Procedure: Fasting Lipid Profile: The fasting lipid panel included: TG, TC, LDL-C, HDL-C, non-HDL-C, and VLDL-C. At all visits, LDL-C was calculated using the Friedewald equation. At Visit 1 and Visit 1.1 direct LDL-C were used if at the same visit TG>400 mg/dL (4.52 mmol/L). These LDL-C values were used for the evaluation of the LDL-C inclusion criterion (LDL-C qualifying measurements for randomization) and for the assessment of changes in the statin therapy when LDL-C was not at goal. […] In addition, irrespective of the TG levels, at Visit 2 (0 Months of Follow-up, baseline) and at Visit 4 (12 Months of Follow-up), LDL-C were measured by preparative ultracentrifugation. These preparative ultracentrifugation LDL-C measurements were used in the statistical analysis including the calculation of the percent change from baseline (1 year versus baseline). Hopkins LDL-C was calculated for each visit.
Biomarkers Assays: The biomarker assays included: hsCRP, Apo B and hsTnT.
The fasting lipid panel was tested at Screening (Visit 1 or Visit 1.1), Randomization visit (Visit 2; Day 0), Visit 3 (Day 120; ˜4 Months) and all other follow-up visits including the last visit. For change from baseline to 1 year preparative ultracentrifugation measurements for LDL-C were analyzed, unless this value was missing. If the LDL-C preparative ultracentrifugation values were missing, then another LDL-C value was used, with prioritization of values obtained from LDL-C Direct measurements, followed by LDL-C derived by the Friedewald calculation (only for subjects with TG<400 mg/dL), and finally LDL-C derived using the calculation published by Hopkins University investigators (Martin S S, Blaha M J, Elshazly M B, et al. Comparison of a novel method vs the Friedewald equation for estimating low-density lipoprotein cholesterol levels from the standard lipid profile. JAMA. 2013; 310:2061-8.). In addition, change from baseline to day 120 in LDL-C utilizing Friedewald's and Hopkins methods was analyzed, using the arithmetic mean of LDL-C obtained at Visit 2 (Day 0) and the preceding Visit 1 (or Visit 1.1). If one of these values was missing, the single available LDL-C value was used. LDL-C according to Hopkins was calculated at each visit.
The randomization visit was considered Baseline. If a baseline value was not available from the randomization visit, then the latest screening value was used. For measurements of lipids, lipoproteins and inflammatory markers, the change and the percent change were summarized at each visit. Since these biomarkers are typically not normally distributed, the Wilcoxon rank-sum test was used for treatment comparisons of the percent change from baseline, and medians and quartiles were provided for each treatment group. The medians of the differences between the treatment groups and 95% CIs were estimated with the Hodges-Lehmann method. In addition, shift-tables were generated as appropriate.

CC/C=C\C/C=C\C/C=C\C/C=C\C/C=C\CCCC(=O)OCC [icosapent ethyl, eicosapentaenoic acid ethyl ester]
Apo B Median % Change from Baseline (Last Visit): −2.5% | Apo B Median Absolute Change from Baseline (Last Visit): -2.0 mg/dL | Apo B Median Observed Value (Last Visit): 80.0 mg/dL | HDL-C Median % Change from Baseline (Last Visit): 2.5% | HDL-C Median Absolute Change from Baseline (Last Visit): 1.0 mg/dL | HDL-C Median Observed Value (Last Visit): 41.0 mg/dL | LDL-C Hopkins Median % Change from Baseline (Last Visit): −1.2% | LDL-C Hopkins Median Absolute Change from Baseline (Last Visit): -1.0 mg/dL | LDL-C Hopkins Median Observed Value (Last Visit): 84.0 mg/dL | LDL-C derived Median % Change from Baseline (Last Visit): 3.1% | LDL-C derived Median Absolute Change from Baseline (Last Visit): 2.0 mg/dL | LDL-C derived Median Observed Value (Last Visit): 77.0 mg/dL | Log hsCRP Median % Change from Baseline (Last Visit): −23.1% | Log hsCRP Median Absolute Change from Baseline (Last Visit): −0.1 mg/L | Log hsCRP Median Observed Value (Last Visit): 0.6 mg/L | Non-HDL-C Median % Change from Baseline (Last Visit): −4.4% | Non-HDL-C Median Absolute Change from Baseline (Last Visit): -5.0 mg/dL | Non-HDL-C Median Observed Value (Last Visit): 112.0 mg/dL | Triglycerides Median % Change from Baseline (Last Visit): −21.6% | Triglycerides Median Absolute Change from Baseline (Last Visit): -45.0 mg/dL | Triglycerides Median Observed Value (Last Visit): 170.0 mg/dL | hsCRP Median % Change from Baseline (Last Visit): −12.6% | hsCRP Median Absolute Change from Baseline (Last Visit): -0.2 mg/L | hsCRP Median Observed Value (Last Visit): 1.8 mg/L | Apo B Between Group Difference Median % Change from Baseline (Last Visit, vs placebo): −6.7% | Apo B Between Group Difference Median Absolute Change from Baseline (Last Visit, vs placebo): -5.0 mg/dL | HDL-C Between Group Difference Median % Change from Baseline (Last Visit, vs placebo): −3.0% | HDL-C Between Group Difference Median Absolute Change from Baseline (Last Visit, vs placebo): -1.0 mg/dL | LDL-C Hopkins Between Group Difference Median % Change from Baseline (Last Visit, vs placebo): −7.4% | LDL-C Hopkins Between Group Difference Median Absolute Change from Baseline (Last Visit, vs placebo): -6.2 mg/dL | LDL-C derived Between Group Difference Median % Change from Baseline (Last Visit, vs placebo): −6.6% | LDL-C derived Between Group Difference Median Absolute Change from Baseline (Last Visit, vs placebo): -5.0 mg/dL | Log hsCRP Between Group Difference Median % Change from Baseline (Last Visit, vs placebo): −21.2% | Log hsCRP Between Group Difference Median Absolute Change from Baseline (Last Visit, vs placebo): −0.4 mg/L | Non-HDL-C Between Group Difference Median % Change from Baseline (Last Visit, vs placebo): −8.6% | Non-HDL-C Between Group Difference Median Absolute Change from Baseline (Last Visit, vs placebo): -10.0 mg/dL | Triglycerides Between Group Difference Median % Change from Baseline (Last Visit, vs placebo): −14.1% | Triglycerides Between Group Difference Median Absolute Change from Baseline (Last Visit, vs placebo): -32.0 mg/dL | hsCRP Between Group Difference Median % Change from Baseline (Last Visit, vs placebo): −37.6% | hsCRP Between Group Difference Median Absolute Change from Baseline (Last Visit, vs placebo): -0.8 mg/L | HDL-C Median % Change from Baseline (Month 4): −2.8% | HDL-C Median Absolute Change from Baseline (Month 4): -1.0 mg/dL | HDL-C Median Observed Value (Month 4): 39.0 mg/dL | LDL-C Hopkins Median % Change from Baseline (Month 4): −2.0% | LDL-C Hopkins Median Absolute Change from Baseline (Month 4): -1.6 mg/dL | LDL-C Hopkins Median Observed Value (Month 4): 83.6 mg/dL | Non-HDL-C Median % Change from Baseline (Month 4): −4.0% | Non-HDL-C Median Absolute Change from Baseline (Month 4): -4.5 mg/dL | Non-HDL-C Median Observed Value (Month 4): 113.0 mg/dL | Triglycerides Median % Change from Baseline (Month 4): −18.6% | Triglycerides Median Absolute Change from Baseline (Month 4): -37.5 mg/dL | Triglycerides Median Observed Value (Month 4): 177.0 mg/dL | HDL-C Between Group Difference Median % Change from Baseline (Month 4, vs placebo): −7.2% | HDL-C Between Group Difference Median Absolute Change from Baseline (Month 4, vs placebo): -3.0 mg/dL | LDL-C Hopkins Between Group Difference Median % Change from Baseline (Month 4, vs placebo): −10.3% | LDL-C Hopkins Between Group Difference Median Absolute Change from Baseline (Month 4, vs placebo): -8.7 mg/dL | Non-HDL-C Between Group Difference Median % Change from Baseline (Month 4, vs placebo): −12.2% | Non-HDL-C Between Group Difference Median Absolute Change from Baseline (Month 4, vs placebo): -14.3 mg/dL | Triglycerides Between Group Difference Median % Change from Baseline (Month 4, vs placebo): −20.1% | Triglycerides Between Group Difference Median Absolute Change from Baseline (Month 4, vs placebo): -45.5 mg/dL | HDL-C Median % Change from Baseline (Year 1): −2.6% | HDL-C Median Absolute Change from Baseline (Year 1): -1.0 mg/dL | HDL-C Median Observed Value (Year 1): 39.0 mg/dL | LDL-C Hopkins Median % Change from Baseline (Year 1): −1.2% | LDL-C Hopkins Median Absolute Change from Baseline (Year 1): -1.1 mg/dL | LDL-C Hopkins Median Observed Value (Year 1): 85.3 mg/dL | LDL-C derived Median % Change from Baseline (Year 1): 3.1% | LDL-C derived Median Absolute Change from Baseline (Year 1): 2.0 mg/dL | LDL-C derived Median Observed Value (Year 1): 77.0 mg/dL | Non-HDL-C Median % Change from Baseline (Year 1): −3.6% | Non-HDL-C Median Absolute Change from Baseline (Year 1): -4.0 mg/dL | Non-HDL-C Median Observed Value (Year 1): 113.0 mg/dL | Triglycerides Median % Change from Baseline (Year 1): −18.3% | Triglycerides Median Absolute Change from Baseline (Year 1): -39.0 mg/dL | Triglycerides Median Observed Value (Year 1): 175.0 mg/dL | HDL-C Between Group Difference Median % Change from Baseline (Year 1, vs placebo): −6.3% | HDL-C Between Group Difference Median Absolute Change from Baseline (Year 1, vs placebo): -2.5 mg/dL | LDL-C Hopkins Between Group Difference Median % Change from Baseline (Year 1, vs placebo): −11.4% | LDL-C Hopkins Between Group Difference Median Absolute Change from Baseline (Year 1, vs placebo): -9.6 mg/dL | LDL-C derived Between Group Difference Median % Change from Baseline (Year 1, vs placebo): −6.6% | LDL-C derived Between Group Difference Median Absolute Change from Baseline (Year 1, vs placebo): -5.0 mg/dL | Non-HDL-C Between Group Difference Median % Change from Baseline (Year 1, vs placebo): −13.1% | Non-HDL-C Between Group Difference Median Absolute Change from Baseline (Year 1, vs placebo): -15.5 mg/dL | Triglycerides Between Group Difference Median % Change from Baseline (Year 1, vs placebo): −19.7% | Triglycerides Between Group Difference Median Absolute Change from Baseline (Year 1, vs placebo): -44.5 mg/dL | Apo B Median Year 1 (Year 1 in Table 18): 80.0 mg/dL | hsCRP Median Year 1 (Year 1 in Table 18): 1.8 mg/L | Apo B Median Between Group Difference at Year 1, % Change from Baseline (Year 1 in Table 18, vs placebo): −9.7% | Apo B Median Between Group Difference at Year 1, Absolute Change from Baseline (Year 1 in Table 18, vs placebo): -8.0 mg/dL | hsCRP Median Between Group Difference at Year 1, % Change from Baseline (Year 1 in Table 18, vs placebo): −39.9% | hsCRP Median Between Group Difference at Year 1, Absolute Change from Baseline (Year 1 in Table 18, vs placebo): -0.9 mg/L | Apo B Median % Change from Baseline (Year 2): −2.5% | Apo B Median Absolute Change from Baseline (Year 2): -2.0 mg/dL
